Test system: MV-4-11 cells
Assay: Gene expression microarray analysis (Affymetrix PrimeView) and GSEA
Assay type: cell-based, human
Design: RFU PODN (11730768_x_at) / Fold change /veh PODN (11730768_x_at) / RFU LINC00158 (11744669_a_at) / Fold change /veh LINC00158 (11744669_a_at) / RFU DUSP10 (11751237_a_at) / Fold change /veh DUSP10 (11751237_a_at) / RFU ID3 (11757404_x_at) / Fold change /veh ID3 (11757404_x_at) / RFU PLEKHG5 (11737974_s_at) / Fold change /veh PLEKHG5 (11737974_s_at) / RFU LRRC4B (11730491_at) / Fold change /veh LRRC4B (11730491_at) / RFU GIMAP4 (11747438_a_at) / Fold change /veh GIMAP4 (11747438_a_at) / RFU KRT8 (11758183_x_at) / Fold change /veh KRT8 (11758183_x_at) / RFU CNN1 (11734310_a_at) / Fold change /veh CNN1 (11734310_a_at) / RFU VPS37D (11726825_at) / Fold change /veh VPS37D (11726825_at) / RFU C10orf10 (11716522_x_at) / Fold change /veh C10orf10 (11716522_x_at) / RFU KIR2DL2 /// KIR2DL4 /// KIR2DL5A /// KIR2DL5B /// KIR2DS1 /// KIR2DS2 /// KIR2DS3 /// KIR2DS4 /// KIR3DL3 /// KIR3DL3 /// KIR3DS1 (11738374_at) / Fold change /veh KIR2DL2 /// KIR2DL4 /// KIR2DL5A /// KIR2DL5B /// KIR2DS1 /// KIR2DS2 /// KIR2DS3 /// KIR2DS4 /// KIR3DL3 /// KIR3DL3 /// KIR3DS1 (11738374_at) / RFU C1QL1 (11718748_at) / Fold change /veh C1QL1 (11718748_at) / RFU TMPRSS4 (11747572_a_at) / Fold change /veh TMPRSS4 (11747572_a_at) / RFU HAMP (11756126_x_at) / Fold change /veh HAMP (11756126_x_at) / RFU RNFT2 (11725882_a_at) / Fold change /veh RNFT2 (11725882_a_at) / RFU NR4A2 (11747474_a_at) / Fold change /veh NR4A2 (11747474_a_at) / RFU ABCC12 (11746883_a_at) / Fold change /veh ABCC12 (11746883_a_at) / RFU TMEM136 (11760407_x_at) / Fold change /veh TMEM136 (11760407_x_at) / RFU CLDN22 /// WWC2 (11732394_at) / Fold change /veh CLDN22 /// WWC2 (11732394_at) / RFU HLA-DPB1 (11760878_x_at) / Fold change /veh HLA-DPB1 (11760878_x_at) / RFU SPINT1 (11716480_a_at) / Fold change /veh SPINT1 (11716480_a_at) / RFU GAP43 (11754022_s_at) / Fold change /veh GAP43 (11754022_s_at) / RFU A4GNT (11735810_at) / Fold change /veh A4GNT (11735810_at) / RFU PRB3 (11715151_x_at) / Fold change /veh PRB3 (11715151_x_at) / RFU TUBB4B (11761932_at) / Fold change /veh TUBB4B (11761932_at) / RFU CAPN14 (11732068_a_at) / Fold change /veh CAPN14 (11732068_a_at) / RFU TMCC2 (11721928_a_at) / Fold change /veh TMCC2 (11721928_a_at) / RFU IRGQ (11745062_a_at) / Fold change /veh IRGQ (11745062_a_at) / RFU FAM174B (11720279_a_at) / Fold change /veh FAM174B (11720279_a_at) / RFU TMPRSS4 (11748680_a_at) / Fold change /veh TMPRSS4 (11748680_a_at) / RFU FAM212B (11763350_a_at) / Fold change /veh FAM212B (11763350_a_at) / RFU PLEKHG5 (11743358_a_at) / Fold change /veh PLEKHG5 (11743358_a_at) / RFU ZSCAN30 (11745921_a_at) / Fold change /veh ZSCAN30 (11745921_a_at) / RFU CMKLR1 (11741424_a_at) / Fold change /veh CMKLR1 (11741424_a_at) / RFU LOC101060620 /// MAPK8IP1 (11723275_at) / Fold change /veh LOC101060620 /// MAPK8IP1 (11723275_at) / RFU SPTSSB (11747773_x_at) / Fold change /veh SPTSSB (11747773_x_at) / RFU PRSS12 (11739890_at) / Fold change /veh PRSS12 (11739890_at) / RFU BIN1 (11741810_x_at) / Fold change /veh BIN1 (11741810_x_at) / RFU WNT11 (11732464_a_at) / Fold change /veh WNT11 (11732464_a_at) / RFU C10orf10 (11716521_a_at) / Fold change /veh C10orf10 (11716521_a_at) / RFU C5orf56 (11738089_at) / Fold change /veh C5orf56 (11738089_at) / RFU CYB561 (11721691_x_at) / Fold change /veh CYB561 (11721691_x_at) / RFU ANKRD19P (11752326_a_at) / Fold change /veh ANKRD19P (11752326_a_at) / RFU OR2T12 /// OR2T33 /// OR2T8 (11738714_s_at) / Fold change /veh OR2T12 /// OR2T33 /// OR2T8 (11738714_s_at) / RFU VCAN (11748164_a_at) / Fold change /veh VCAN (11748164_a_at) / RFU JSRP1 (11732532_at) / Fold change /veh JSRP1 (11732532_at) / RFU KRTAP10-11 (11738290_x_at) / Fold change /veh KRTAP10-11 (11738290_x_at) / RFU MYO3A (11730013_a_at) / Fold change /veh MYO3A (11730013_a_at) / RFU EBF3 (11725865_a_at) / Fold change /veh EBF3 (11725865_a_at) / RFU CAMK2N1 (11719241_x_at) / Fold change /veh CAMK2N1 (11719241_x_at) / RFU C5orf56 (11738088_a_at) / Fold change /veh C5orf56 (11738088_a_at) / RFU OLFML3 (11715873_a_at) / Fold change /veh OLFML3 (11715873_a_at) / RFU LOC100653217 /// NTM (11731650_a_at) / Fold change /veh LOC100653217 /// NTM (11731650_a_at) / RFU MAPK11 (11762145_a_at) / Fold change /veh MAPK11 (11762145_a_at) / RFU FIZ1 (11724087_x_at) / Fold change /veh FIZ1 (11724087_x_at) / RFU OASL (11726364_x_at) / Fold change /veh OASL (11726364_x_at) / RFU SOX15 (11748057_x_at) / Fold change /veh SOX15 (11748057_x_at) / RFU CD79A (11719716_a_at) / Fold change /veh CD79A (11719716_a_at) / RFU HIST1H1D (11736915_at) / Fold change /veh HIST1H1D (11736915_at) / RFU CASKIN2 (11723855_a_at) / Fold change /veh CASKIN2 (11723855_a_at) / RFU LOC730098 (11760151_x_at) / Fold change /veh LOC730098 (11760151_x_at) / RFU OR4N2 (11742367_at) / Fold change /veh OR4N2 (11742367_at) / RFU PRRT2 (11749266_a_at) / Fold change /veh PRRT2 (11749266_a_at) / RFU SNX32 (11753110_a_at) / Fold change /veh SNX32 (11753110_a_at) / RFU CDHR5 (11726645_a_at) / Fold change /veh CDHR5 (11726645_a_at) / RFU RCAN1 (11760418_a_at) / Fold change /veh RCAN1 (11760418_a_at) / RFU FAM167A (11723789_a_at) / Fold change /veh FAM167A (11723789_a_at) / RFU FAM26E (11764081_at) / Fold change /veh FAM26E (11764081_at) / RFU ISYNA1 (11749810_s_at) / Fold change /veh ISYNA1 (11749810_s_at) / RFU ACY1 (11761880_at) / Fold change /veh ACY1 (11761880_at) / RFU 11764098_at / Fold change /veh 11764098_at / RFU SAMD14 (11745864_x_at) / Fold change /veh SAMD14 (11745864_x_at) / RFU NPB (11741838_a_at) / Fold change /veh NPB (11741838_a_at) / RFU TMPRSS6 (11731388_a_at) / Fold change /veh TMPRSS6 (11731388_a_at) / RFU KRTAP10-2 (11738614_at) / Fold change /veh KRTAP10-2 (11738614_at) / RFU ARHGAP8 /// PRR5-ARHGAP8 (11727945_x_at) / Fold change /veh ARHGAP8 /// PRR5-ARHGAP8 (11727945_x_at) / RFU KRTAP5-7 /// NADSYN1 (11734609_at) / Fold change /veh KRTAP5-7 /// NADSYN1 (11734609_at) / RFU RASL12 (11751679_a_at) / Fold change /veh RASL12 (11751679_a_at) / RFU CDKN2B (11736163_a_at) / Fold change /veh CDKN2B (11736163_a_at) / RFU PRF1 (11729649_at) / Fold change /veh PRF1 (11729649_at) / RFU, ZNF638 /// ZNF638-IT1 / Fold change vs veh, ZNF638 /// ZNF638-IT1 / RFU, PANK3 / Fold change vs veh, PANK3 / RFU, SH3YL1 / Fold change vs veh, SH3YL1 / RFU, ZEB2 / Fold change vs veh, ZEB2 / RFU, NRIP1 / Fold change vs veh, NRIP1 / RFU, PTTG1IP / Fold change vs veh, PTTG1IP / RFU, CAPN2 / Fold change vs veh, CAPN2 / RFU, MED14 / Fold change vs veh, MED14 / RFU, SNORA58 / Fold change vs veh, SNORA58 / RFU, C1orf63 / Fold change vs veh, C1orf63 / RFU, LRRFIP1 / Fold change vs veh, LRRFIP1 / RFU, NDUFAF7 / Fold change vs veh, NDUFAF7 / RFU, SLC12A2 / Fold change vs veh, SLC12A2 / RFU, IBTK / Fold change vs veh, IBTK / RFU, ESF1 / Fold change vs veh, ESF1 / Fold change vs veh, TMEM50B / RFU, TAOK1 / Fold change vs veh, TAOK1 / RFU, ACBD3 / Fold change vs veh, ACBD3 / RFU, TMA16 / Fold change vs veh, TMA16 / RFU, RWDD3 / Fold change vs veh, RWDD3 / RFU, BCAT1 / Fold change vs veh, BCAT1 / RFU, EDEM3 / Fold change vs veh, EDEM3 / RFU, TMEM33 / Fold change vs veh, TMEM33 / RFU, WDR75 / Fold change vs veh, WDR75 / RFU, AHCTF1 / Fold change vs veh, AHCTF1 / RFU, TFRC / Fold change vs veh, TFRC / RFU, ZDHHC17 / Fold change vs veh, ZDHHC17 / RFU, NOM1 / Fold change vs veh, NOM1 / RFU, ARL8B / Fold change vs veh, ARL8B / RFU, ZBTB11 / Fold change vs veh, ZBTB11 / RFU, TAMM41 / Fold change vs veh, TAMM41 / RFU, KIAA1704 /// LOC100996395 / Fold change vs veh, KIAA1704 /// LOC100996395 / RFU, ING1 / Fold change vs veh, ING1 / RFU, TRMT61B / Fold change vs veh, TRMT61B / RFU, FUBP3 / Fold change vs veh, FUBP3 / RFU, TP53 / Fold change vs veh, TP53 / RFU, TNKS2 / Fold change vs veh, TNKS2 / RFU, ZFP14 / Fold change vs veh, ZFP14 / RFU, ACTR2 / Fold change vs veh, ACTR2 / RFU, PPP3R1 / Fold change vs veh, PPP3R1 / RFU, PIK3R1 / Fold change vs veh, PIK3R1 / RFU, HNRNPA1 / Fold change vs veh, HNRNPA1 / RFU, RNF170 / Fold change vs veh, RNF170 / RFU, ZNF28 / Fold change vs veh, ZNF28 / RFU, RNGTT / Fold change vs veh, RNGTT / RFU, OGT / Fold change vs veh, OGT / RFU, BRD1 / Fold change vs veh, BRD1 / RFU, MARS / Fold change vs veh, MARS / RFU, ZNF655 / Fold change vs veh, ZNF655 / RFU, FAHD1 / Fold change vs veh, FAHD1 / RFU, BDP1 / Fold change vs veh, BDP1 / RFU, LRRCC1 / Fold change vs veh, LRRCC1 / RFU, ARID1A / Fold change vs veh, ARID1A / RFU, ZNF146 / Fold change vs veh, ZNF146 / RFU, ZNF330 / Fold change vs veh, ZNF330 / RFU, GPN3 / Fold change vs veh, GPN3 / RFU, C9orf123 / Fold change vs veh, C9orf123 / RFU, N4BP2L2 / Fold change vs veh, N4BP2L2 / RFU, ARFIP1 / Fold change vs veh, ARFIP1 / RFU, FAM179B / Fold change vs veh, FAM179B / RFU, BCL10 / Fold change vs veh, BCL10 / RFU, UHRF1BP1L / Fold change vs veh, UHRF1BP1L / RFU, BET1 / Fold change vs veh, BET1 / RFU, CNOT2 / Fold change vs veh, CNOT2 / RFU, ZNF268 / Fold change vs veh, ZNF268 / Fold change vs veh, ZNF507 / RFU, DGCR2 / Fold change vs veh, DGCR2 / RFU, WDSUB1 / Fold change vs veh, WDSUB1 / Fold change vs veh, HSP90B1 /// MIR3652 / RFU, ADSS / Fold change vs veh, ADSS / RFU, GK / Fold change vs veh, GK / RFU, ZNF148 / Fold change vs veh, ZNF148 / RFU, TAF9 / Fold change vs veh, TAF9 / RFU, SLC1A5 / Fold change vs veh, SLC1A5 / RFU, SLMO2 / Fold change vs veh, SLMO2 / RFU, ABCC4 / Fold change vs veh, ABCC4 / RFU, LOC101060439 /// RAP1B / Fold change vs veh, LOC101060439 /// RAP1B / RFU, RFX7 / Fold change vs veh, RFX7 / RFU, GTPBP10 / Fold change vs veh, GTPBP10 / RFU, CNEP1R1 / Fold change vs veh, CNEP1R1 / RFU, BIVM-ERCC5 /// ERCC5 / Fold change vs veh, BIVM-ERCC5 /// ERCC5 / RFU, ILF3 / Fold change vs veh, ILF3 / RFU 11762660_at / Fold change /veh 11762660_at / RFU VCAN (11757783_s_at) / Fold change /veh VCAN (11757783_s_at) / RFU DDX43 (11728927_at) / Fold change /veh DDX43 (11728927_at) / RFU KRT8 (11758188_x_at) / Fold change /veh KRT8 (11758188_x_at) / RFU NKD1 (11759106_at) / Fold change /veh NKD1 (11759106_at) / RFU SRD5A1 (11742802_a_at) / Fold change /veh SRD5A1 (11742802_a_at) / RFU TPSAB1 /// TPSB2 (11721975_s_at) / Fold change /veh TPSAB1 /// TPSB2 (11721975_s_at) / RFU GSTM3 (11746129_a_at) / Fold change /veh GSTM3 (11746129_a_at) / RFU IL23R (11737362_x_at) / Fold change /veh IL23R (11737362_x_at) / RFU TMEM51 (11727254_a_at) / Fold change /veh TMEM51 (11727254_a_at) / RFU PIWIL2 (11732686_x_at) / Fold change /veh PIWIL2 (11732686_x_at) / RFU ORM1 (11744905_x_at) / Fold change /veh ORM1 (11744905_x_at) / RFU CCDC152 (11743942_at) / Fold change /veh CCDC152 (11743942_at) / RFU ECM1 (11717891_a_at) / Fold change /veh ECM1 (11717891_a_at) / RFU IL23R (11748794_a_at) / Fold change /veh IL23R (11748794_a_at) / RFU TNFAIP8L3 (11732012_x_at) / Fold change /veh TNFAIP8L3 (11732012_x_at) / RFU MBOAT4 (11741988_at) / Fold change /veh MBOAT4 (11741988_at) / RFU 11764193_at / Fold change /veh 11764193_at / RFU TMEM53 (11763286_at) / Fold change /veh TMEM53 (11763286_at) / RFU MAGEB2 (11727129_at) / Fold change /veh MAGEB2 (11727129_at) / RFU TMEM200A (11744735_a_at) / Fold change /veh TMEM200A (11744735_a_at) / RFU CCDC152 (11751479_a_at) / Fold change /veh CCDC152 (11751479_a_at) / RFU FAM211A (11726209_a_at) / Fold change /veh FAM211A (11726209_a_at) / RFU RGS16 (11746705_a_at) / Fold change /veh RGS16 (11746705_a_at) / RFU VCAN (11755009_s_at) / Fold change /veh VCAN (11755009_s_at) / RFU RHOB (11743442_s_at) / Fold change /veh RHOB (11743442_s_at) / RFU RGS16 (11720943_a_at) / Fold change /veh RGS16 (11720943_a_at) / RFU RGS16 (11720944_at) / Fold change /veh RGS16 (11720944_at) / RFU, VPS4B / Fold change vs veh, VPS4B / RFU, CREB1 / Fold change vs veh, CREB1 / RFU, DNAJC13 / Fold change vs veh, DNAJC13 / RFU, GNAQ / Fold change vs veh, GNAQ / RFU, CDK5R1 / Fold change vs veh, CDK5R1 / RFU, ZRANB3 / Fold change vs veh, ZRANB3 / RFU, CUL4A / Fold change vs veh, CUL4A / RFU, CCNY / Fold change vs veh, CCNY / RFU, UFL1 / Fold change vs veh, UFL1 / RFU, COG3 / Fold change vs veh, COG3 / RFU, DIAPH2 / Fold change vs veh, DIAPH2 / RFU, SKA2 / Fold change vs veh, SKA2 / RFU, AFF3 / Fold change vs veh, AFF3 / RFU, LMF1 / Fold change vs veh, LMF1 / RFU, IPO11 / Fold change vs veh, IPO11 / RFU, DFFB / Fold change vs veh, DFFB / RFU, FOXP1 / Fold change vs veh, FOXP1 / RFU, CARD8 / Fold change vs veh, CARD8 / RFU, STRN3 / Fold change vs veh, STRN3 / RFU, ADK / Fold change vs veh, ADK / RFU, RASSF2 / Fold change vs veh, RASSF2 / RFU, WIPF1 / Fold change vs veh, WIPF1 / RFU, LARP1B / Fold change vs veh, LARP1B / RFU, RASA1 / Fold change vs veh, RASA1 / RFU, RB1 / Fold change vs veh, RB1 / RFU, PPFIA1 / Fold change vs veh, PPFIA1 / RFU, MAT2A / Fold change vs veh, MAT2A / RFU, CCT5 / Fold change vs veh, CCT5 / RFU, WDR92 / Fold change vs veh, WDR92 / RFU, CUX1 / Fold change vs veh, CUX1 / RFU, TTC7A / Fold change vs veh, TTC7A / RFU, TMEM135 / Fold change vs veh, TMEM135 / RFU, DEPTOR / Fold change vs veh, DEPTOR / RFU, CPM / Fold change vs veh, CPM / RFU, DNAJB6 / Fold change vs veh, DNAJB6 / RFU, CACNA2D3 / Fold change vs veh, CACNA2D3 / RFU, DTX4 / Fold change vs veh, DTX4 / RFU, TFCP2 / Fold change vs veh, TFCP2 / RFU, GMCL1 /// GMCL1P1 / Fold change vs veh, GMCL1 /// GMCL1P1 / RFU, AEBP2 / Fold change vs veh, AEBP2 / RFU, SNHG1 /// SNORD22 /// SNORD25 /// SNORD26 /// SNORD27 /// SNORD28 /// SNORD29 /// SNORD31 / Fold change vs veh, SNHG1 /// SNORD22 /// SNORD25 /// SNORD26 /// SNORD27 /// SNORD28 /// SNORD29 /// SNORD31 / Fold change (Aza/veh), C12orf56 (ProbeSet 11735607_a_at) / Fold change (ACY-1035/veh), C12orf56 (ProbeSet 11735607_a_at) / Fold change (Aza/veh), FGFR1OP (ProbeSet 11751329_s_at) / Fold change (ACY-1035/veh), FGFR1OP (ProbeSet 11751329_s_at) / Fold change (Aza/veh), VPS36 (ProbeSet 11739960_a_at) / Fold change (ACY-1035/veh), VPS36 (ProbeSet 11739960_a_at) / RFU SYPL1 (11715823_x_at) / Fold change /veh SYPL1 (11715823_x_at) / RFU IGFBP7 (11715501_s_at) / Fold change /veh IGFBP7 (11715501_s_at) / RFU REEP3 (11722064_at) / Fold change /veh REEP3 (11722064_at) / RFU IGLL1 (11728026_x_at) / Fold change /veh IGLL1 (11728026_x_at): dose or concentration left out as unconfirmed
Details: ProbeSet 11756954_s_at; LIST B

SMILES: Nc1ncn([C@@H]2O[C@H](CO)[C@@H](O)[C@H]2O)c(=O)n1 [azacitidine]
- Fold change vs veh, ZEB2: 0.83
